Measured values reported in patent US4840954A, “6,7-disubstituted 1-cycloproply-1,4-dihydro-4-oxo-1,8-naphthyridine-3-carboxylic acids” (Bayer Aktiengesellschaft, priority 1985, dated 1989).
≈ marks a conversion by molar mass, not a printed value.

Key:
Assay type in all cases: cell-based
[1] = tested on: Proteus vulg. 1017; test: MIC, agar dilution test, Proteus vulg. 1017; settings: agar dilution test / Isosensitest medium
Source text: (§1) As a comparison, the corresponding MIC values of 1-ethyl-6-fluoro-1,4-dihydro-4-oxo-7-(1-piperazinyl)-1,8-naphthyridine-3-carboxylic acid (AT 2266, enoxacin), which is known from European Patent Application 9,425, Japanese Patent Applications 81/45473 [C.A. 95, 115 597 (1981)] and 81/46811 [C.A. 95, 121 142 (1981)], from J. Med. Chem. 27, 292 (1984) or from J. Heterocycl.
(§2) Agar dilution test / Isosensitest medium

[2] = tested on: Klebsiella 6179; test: MIC, agar dilution test, Klebsiella 6179; settings: agar dilution test / Isosensitest medium
Source text: as §1, §2

[3] = tested on: Proteus morg. 11006; test: MIC, agar dilution test, Proteus morg. 11006; settings: agar dilution test / Isosensitest medium
Source text: as §1, §2

[4] = tested on: Serratia 16040; test: MIC, agar dilution test, Serratia 16040; settings: agar dilution test / Isosensitest medium
Source text: as §1, §2

[5] = tested on: Staphyloc. 1756; test: MIC, agar dilution test, Staphyloc. 1756; settings: agar dilution test / Isosensitest medium
Source text: as §1, §2

[6] = tested on: Providencia 12012; test: MIC, agar dilution test, Providencia 12012; settings: agar dilution test / Isosensitest medium
Source text: as §1, §2

[7] = tested on: E.Coli 455/7; test: MIC, agar dilution test, E.Coli 455/7; settings: Escherichia coli, agar dilution test / Isosensitest medium
Source text: as §1, §2

[8] = tested on: Proteus mir. 8175; test: MIC, agar dilution test, Proteus mir. 8175; settings: agar dilution test / Isosensitest medium
Source text: as §1, §2

[9] = tested on: Staphyloc. 133; test: MIC, agar dilution test, Staphyloc. 133; settings: agar dilution test / Isosensitest medium
Source text: as §1, §2

[10] = tested on: Pseudomonas W.; test: MIC, agar dilution test, Pseudomonas W.; settings: agar dilution test / Isosensitest medium
Source text: as §1, §2

[11] = tested on: Klebsiella 63; test: MIC, agar dilution test, Klebsiella 63; settings: agar dilution test / Isosensitest medium
Source text: as §1, §2

[12] = tested on: E.coli 4418; test: MIC, agar dilution test, E.coli 4418; settings: Escherichia coli, agar dilution test / Isosensitest medium
Source text: as §1, §2

[13] = tested on: E.coli Neum.; test: MIC, agar dilution test, E.coli Neum.; settings: Escherichia coli, agar dilution test / Isosensitest medium
Source text: as §1, §2

O=C(O)c1cn(C2CC2)c2nc(N3CCNCC3)c(F)cc2c1=O [Example 1, 1-Cyclopropyl-6-fluoro-1,4-dihydro-4-oxo-7-(1-piperazinyl)-1,8-naphthyridine-3-carboxylic acid]
MIC [1]: 0.06 µg/mL (≈ 0.181 µM)
MIC [2]: 0.125 µg/mL (≈ 0.376 µM)
MIC [3]: 0.06 µg/mL (≈ 0.181 µM)
MIC [4]: 8 µg/mL (≈ 24.1 µM)
MIC [5]: 0.5 µg/mL (≈ 1.5 µM)
MIC [6]: 0.03 µg/mL (≈ 0.0903 µM)
MIC [7]: 4 µg/mL (≈ 12 µM)
MIC [8]: 0.125 µg/mL (≈ 0.376 µM)
MIC [9]: 0.5 µg/mL (≈ 1.5 µM)
MIC [10]: 0.125 µg/mL (≈ 0.376 µM)
MIC [11]: 0.03 µg/mL (≈ 0.0903 µM)
MIC [12]: 0.03 µg/mL (≈ 0.0903 µM)
MIC [13]: ≤ 0.015 µg/mL

CN1CCN(c2nc3c(cc2F)c(=O)c(C(=O)O)cn3C2CC2)CC1.Cl [Example 3, 1-Cyclopropyl-6-fluoro-1,4-dihydro-7-(4-methyl-1-piperazinyl)-4-oxo-1,8-naphthyridine-3-carboxylic acid hydrochloride]
MIC [1]: 0.125 µg/mL
MIC [2]: 0.03 µg/mL
MIC [3]: 0.06 µg/mL
MIC [4]: 8 µg/mL
MIC [5]: 0.5 µg/mL
MIC [6]: 0.06 µg/mL
MIC [7]: 8 µg/mL
MIC [8]: 0.25 µg/mL
MIC [9]: 0.5 µg/mL
MIC [10]: 1 µg/mL
MIC [11]: ≤ 0.015 µg/mL
MIC [12]: 0.06 µg/mL
MIC [13]: ≤ 0.015 µg/mL

CCn1cc(C(=O)O)c(=O)c2cc(F)c(N3CCNCC3)nc21 [Enoxacin, 1-ethyl-6-fluoro-1,4-dihydro-4-oxo-7-(1-piperazinyl)-1,8-naphthyridine-3-carboxylic acid, reference compound]
MIC [1]: 0.125 µg/mL (≈ 0.39 µM)
MIC [2]: 2 µg/mL (≈ 6.24 µM)
MIC [3]: 0.125 µg/mL (≈ 0.39 µM)
MIC [4]: 32 µg/mL (≈ 99.9 µM)
MIC [5]: 1 µg/mL (≈ 3.12 µM)
MIC [6]: 0.25 µg/mL (≈ 0.78 µM)
MIC [7]: 16 µg/mL (≈ 49.9 µM)
MIC [8]: 0.25 µg/mL (≈ 0.78 µM)
MIC [9]: 1 µg/mL (≈ 3.12 µM)
MIC [10]: 2 µg/mL (≈ 6.24 µM)
MIC [11]: 0.5 µg/mL (≈ 1.56 µM)
MIC [12]: 0.25 µg/mL (≈ 0.78 µM)
MIC [13]: 0.06 µg/mL (≈ 0.187 µM)

CC1CN(c2nc3c(cc2F)c(=O)c(C(=O)O)cn3C2CC2)CCN1 (stereo not shown) [Example 2, 1-Cyclopropyl-6-fluoro-1,4-dihydro-7-(3-methyl-1-piperazinyl)-4-oxo-1,8-naphthyridine-3-carboxlyic acid]
MIC [1]: 0.125 µg/mL (≈ 0.361 µM)
MIC [2]: 0.125 µg/mL (≈ 0.361 µM)
MIC [3]: 0.03 µg/mL (≈ 0.0866 µM)
MIC [4]: 8 µg/mL (≈ 23.1 µM)
MIC [5]: 0.5 µg/mL (≈ 1.44 µM)
MIC [6]: 0.125 µg/mL (≈ 0.361 µM)
MIC [7]: 8 µg/mL (≈ 23.1 µM)
MIC [8]: 0.25 µg/mL (≈ 0.722 µM)
MIC [9]: 0.5 µg/mL (≈ 1.44 µM)
MIC [10]: 1 µg/mL (≈ 2.89 µM)
MIC [11]: ≤ 0.015 µg/mL
MIC [12]: 0.03 µg/mL (≈ 0.0866 µM)
MIC [13]: ≤ 0.015 µg/mL
